Experimental data from US6992111B2, “Fungicide” (Valent BioSciences Corporation, priority 2003, dated 2006).

Key:
Sclerotinia sclerotiorum = assay: Contact evaluation (microtiter plate fungal growth); assay type: cell-based; settings: Sclerotinia sclerotionum
Protocol: Contact Evaluation. Compound solution: Contact evaluations were conducted to determine the anti-fungal activity of each compound against Botrytis cinerea, Sclerotinia sclerotiorum, Pythium aphanidermatum, Rhizoctonia solani, Cercospora arachidicola, Mycosphaerella fijiensis, and Monilinia laxa. Five milligrams of each compound were dissolved in 0.5 milliliter of DMSO for a compound stock solution of 1.0% w/v. Compound stock solutions were serial diluted with DMSO to 20, 10, and 2 ppm final well concentration. Fungi preparation: Botrytis cinerea spores were taken from 6-week-old cultures grown at 22 C on full strength potato dextrous agar (PDA) plates. Sclerotinia sclerotiorum, Pythium aphanidermatum, Rhizoctonia solani, and Monilinia laxa mycelia were taken from 4- to 10-day-old shake flask cultures grown at room temperature on full strength potato dextrous broth (PDB). Cercospora arachidicola mycelia were taken from 10- to 14-day-old shake flask cultures grown at room temperature on a full strength PDB amended with peanut oil. Mycosphaerella fijiensis mycelia were taken from 10- to 14-day-old shake flask cultures grown at room temperature on V8 juice broth. Sclerotinia sclerotiorum, Pythium aphanidermatum, Rhizoctonia solani, Cercospora arachidicola, and Mycosphaerella fijiensis mycelia (0.4 g mycelia) were blended for 45 seconds in 20 mL sterile de-ionized water. Monilinia laxa mycelia (1 g mycelia) was blended for 45 seconds in 30 mL of sterile de-ionized water. Botrytis cinerea spores were diluted with quarter strength PDB to 1×10^5 spores/mL final well concentration. All mycelia were diluted in water (1:5 mycelia:water) before distributing into the wells. Microtiter plate preparation: Compound solution (10:L), quarter strength PDB (900:L) and fungi preparation (100:L) were sequentially distributed into 48-well microtiter plates (n=3 replications/compound/rate). A blank consisted of quarter strength PDB and fungi preparation. Commercial fungicide controls (100 ppm diluted with water) consisted of Scala for Botrytis cinerea, Dithane F-45 for Mycosphaerella fijiensis, and Benlate for Sclerotinia sclerotiorum, Pythium aphanidermatum, Rhizoctonia solani, Cercospora arachidicola, and Monilinia laxa. Plates were shaken in a circular rotator at room temperature for 20 minutes, then incubated at 25C for 24 to 72 hours, depending on the pathogen. Fungal control ratings: Fungal growth in wells containing the compounds were compared to the positive control and fungal inhibition was rated as full, partial, or none. Final readings were the average of the three wells (Table 1).

Monilinia laxa = assay: as above; assay type: cell-based
Protocol: (§1) Compound solution: Contact evaluations were conducted to determine the anti-fungal activity of each compound against Botrytis cinerea, Sclerotinia sclerotiorum, Pythium aphanidermatum, Rhizoctonia solani, Cercospora arachidicola, Mycosphaerella fijiensis, and Monilinia laxa. Five milligrams of each compound were dissolved in 0.5 milliliter of DMSO for a compound stock solution of 1.0% w/v. Compound stock solutions were serial diluted with DMSO to 20, 10, and 2 ppm final well concentration.
(§2) Fungi preparation: Botrytis cinerea spores were taken from 6-week-old cultures grown at 22 C on full strength potato dextrous agar (PDA) plates. Sclerotinia sclerotiorum, Pythium aphanidermatum, Rhizoctonia solani, and Monilinia laxa mycelia were taken from 4- to 10-day-old shake flask cultures grown at room temperature on full strength potato dextrous broth (PDB). Cercospora arachidicola mycelia were taken from 10- to 14-day-old shake flask cultures grown at room temperature on a full strength PDB amended with peanut oil. Mycosphaerella fijiensis mycelia were taken from 10- to 14-day-old shake flask cultures grown at room temperature on V8 juice broth. Sclerotinia sclerotiorum, Pythium aphanidermatum, Rhizoctonia solani, Cercospora arachidicola, and Mycosphaerella fijiensis mycelia (0.4 g mycelia) were blended for 45 seconds in 20 mL sterile de-ionized water. Monilinia laxa mycelia (1 g mycelia) was blended for 45 seconds in 30 mL of sterile de-ionized water. Botrytis cinerea spores were diluted with quarter strength PDB to 1×10^5 spores/mL final well concentration. All mycelia were diluted in water (1:5 mycelia:water) before distributing into the wells.
(§3) Microtiter plate preparation: Compound solution (10:L), quarter strength PDB (900:L) and fungi preparation (100:L) were sequentially distributed into 48-well microtiter plates (n=3 replications/compound/rate). A blank consisted of quarter strength PDB and fungi preparation. Commercial fungicide controls (100 ppm diluted with water) consisted of Scala for Botrytis cinerea, Dithane F-45 for Mycosphaerella fijiensis, and Benlate for Sclerotinia sclerotiorum, Pythium aphanidermatum, Rhizoctonia solani, Cercospora arachidicola, and Monilinia laxa. Plates were shaken in a circular rotator at room temperature for 20 minutes, then incubated at 25C for 24 to 72 hours, depending on the pathogen.
(§4) Fungal control ratings: Fungal growth in wells containing the compounds were compared to the positive control and fungal inhibition was rated as full, partial, or none. Final readings were the average of the three wells (Table 1).

Cercospora arachidicola = assay: as above; assay type: cell-based
Protocol: as §1, §2, §3, §4

Pythium aphanidermatum = assay: as above; assay type: cell-based
Protocol: as §1, §2, §3, §4

Botrytis cinerea [1] = assay: as above; assay type: cell-based
Protocol: as §1, §2, §3, §4

Rhizoctonia solani = assay: as above; assay type: cell-based; settings: Rhizoctinia solani
Protocol: as §1, §2, §3, §4

Mycosphaerella fijiensis = assay: as above; assay type: cell-based
Protocol: as §1, §2, §3, §4

[2] = system: Phaseolus vulgaris (Bush bean cv. Blue Lake 274) leaves; assay: Detached bean leaf bioassay, phytotoxicity rating; assay type: in vivo
Protocol: Detached Bean Leaf Bioassay Compound solution: Compound solutions were prepared by diluting compound stock solutions (1.0% w/v compound in DMSO) to 200 ppm with 0.01% w/v Triton X-100. Plant material: Middle trifoliate leaves of greenhouse grown Phaseolus vulgaris (Bush bean cv. Blue Lake 274) were excised and placed on a plastic grid above a tray containing moist towels. Treatment method: One half of the adaxial surface of the leaf was treated with the compound solution (100:L) using a 3 cm Bacti Cell Spreader. A blank consisted of 0.01% w/v Triton X-100. A commercial fungicide control (200 ppm diluted with water) consisted of Scala. After the solutions dried, the trays containing the leaves were covered and held one day in a growth chamber (22 C). The adaxial surfaces of the leaves were then inoculated with 5–60:L droplets of Botrytis cinerea spore solution. Phytotoxicity ratings: Phytotoxicity was rated as 0=no phytotoxicity, 1=slight phytotoxicity, 2=moderate phytotoxicity, or 3=excessive phytotoxicity (Table 2).

Botrytis cinerea [3] = assay: Detached bean leaf bioassay, fungal control; assay type: in vivo; settings: 200 ppm on detached bean leaf; 100 minus percent necrotic area, three days after inoculation
Protocol: Detached Bean Leaf Bioassay
Compound solution: Compound solutions were prepared by diluting compound stock solutions (1.0% w/v compound in DMSO) to 200 ppm with 0.01% w/v Triton X-100.
Spore solution preparation: Botrytis cinerea spores were taken from 6-week-old cultures grown at 22 C on full strength potato dextrous agar (PDA) plates and harvested in 1:16 frozen orange juice concentrate:water. Botrytis cinerea spore solutions were prepared by diluting spore cultures to 5×10^4 spores/mL with 1:16 frozen orange juice concentrate:water.
Plant material: Middle trifoliate leaves of greenhouse grown Phaseolus vulgaris (Bush bean cv. Blue Lake 274) were excised and placed on a plastic grid above a tray containing moist towels.
Treatment method: One half of the adaxial surface of the leaf was treated with the compound solution (100:L) using a 3 cm Bacti Cell Spreader. A blank consisted of 0.01% w/v Triton X-100. A commercial fungicide control (200 ppm diluted with water) consisted of Scala. After the solutions dried, the trays containing the leaves were covered and held one day in a growth chamber (22 C). The adaxial surfaces of the leaves were then inoculated with 5–60:L droplets of Botrytis cinerea spore solution.
Fungal control rating: Three days after inoculation with Botrytis, the percent necrotic area under the inoculation droplet was determined. Since the areas under the blank (0.01% w/v Triton X-100) were 100% infected, fungal control was expressed as 100 minus the percent necrotic area, and thus 0% infected is 100% fungal control (n=3 leaves/compound, 5 inoculation droplets/leaf, Table 2).

Structure (SMILES) | Control of fungi (full, partial, none) (Sclerotinia sclerotiorum; fungicide rate 2 ppm) | Control of fungi (full, partial, none) (Sclerotinia sclerotiorum; fungicide rate 10 ppm) | Control of fungi (full, partial, none) (Sclerotinia sclerotiorum; fungicide rate 20 ppm) | Control of fungi (full, partial, none) (Monilinia laxa; fungicide rate 2 ppm) | Control of fungi (full, partial, none) (Monilinia laxa; fungicide rate 10 ppm) | Control of fungi (full, partial, none) (Monilinia laxa; fungicide rate 20 ppm) | Control of fungi (full, partial, none) (Cercospora arachidicola; fungicide rate 2 ppm) | Control of fungi (full, partial, none) (Cercospora arachidicola; fungicide rate 10 ppm) | Control of fungi (full, partial, none) (Cercospora arachidicola; fungicide rate 20 ppm) | Control of fungi (full, partial, none) (Pythium aphanidermatum; fungicide rate 2 ppm) | Control of fungi (full, partial, none) (Pythium aphanidermatum; fungicide rate 10 ppm) | Control of fungi (full, partial, none) (Pythium aphanidermatum; fungicide rate 20 ppm) | Control of fungi (full, partial, none) (Botrytis cinerea [1]; fungicide rate 2 ppm) | Control of fungi (full, partial, none) (Botrytis cinerea [1]; fungicide rate 10 ppm) | Control of fungi (full, partial, none) (Botrytis cinerea [1]; fungicide rate 20 ppm) | Control of fungi (full, partial, none) (Rhizoctonia solani; fungicide rate 2 ppm) | Control of fungi (full, partial, none) (Rhizoctonia solani; fungicide rate 10 ppm) | Control of fungi (full, partial, none) (Rhizoctonia solani; fungicide rate 20 ppm) | Control of fungi (full, partial, none) (Mycosphaerella fijiensis; fungicide rate 2 ppm) | Control of fungi (full, partial, none) (Mycosphaerella fijiensis; fungicide rate 10 ppm) | other results
O=[N+]([O-])c1ccc(O)c(-c2ccc(C(F)(F)F)cc2)c1 [X = CF3] | Full | Full | Full | Full | Full | Full | Full | Full | Full | Full | Full | Full | Full | Full | Full | Partial | Full | Full | Full | Full | Control of fungi (full, partial, none) (Mycosphaerella fijiensis; fungicide rate 20 ppm): Full; Phytotoxity (200 ppm) [2]: Moderate; Botrytis cinerea control (200 ppm) (Botrytis cinerea [3]): 100%
O=[N+]([O-])c1ccc(O)c(-c2ccc(Cl)cc2)c1 [X = Cl] | Full | Full | Full | Full | Full | Full | Full | Full | Full | Full | Full | Full | Full | Full | Full | Full | Full | Full | Full | Full | Control of fungi (full, partial, none) (Mycosphaerella fijiensis; fungicide rate 20 ppm): Full; Phytotoxity (200 ppm) [2]: Moderate; Botrytis cinerea control (200 ppm) (Botrytis cinerea [3]): 97%
O=[N+]([O-])c1ccc(O)c(-c2ccc(F)cc2)c1 [X = F] | Full | Full | Full | Partial | Full | Full | Full | Full | Full | Partial | Full | Full | Partial | Full | Full | None | Full | Full | Full | Full | Control of fungi (full, partial, none) (Mycosphaerella fijiensis; fungicide rate 20 ppm): Full; Phytotoxity (200 ppm) [2]: None; Botrytis cinerea control (200 ppm) (Botrytis cinerea [3]): 31%
